Measured values: ChEMBL document CHEMBL1201862, “PubChem BioAssay data set” (2004)
Calls of active or inactive are those of the source.

How the values were obtained:
Cytochrome P450 3A4 = Cytochrome P450 3A4 (Homo sapiens, UniProt P08684); conditions: Potency;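 further: confirmatory qHTS run detecting inhibitors and substrates of CYP3A4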
[1] = target: T1, Aryl hydrocarbon receptor (Homo sapiens, UniProt P35869); conditions: Potency;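 further: confirmatory quantitative high-throughput screen measuring activation of the AhR signaling pathway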
T1 sequence (P35869 whole entry): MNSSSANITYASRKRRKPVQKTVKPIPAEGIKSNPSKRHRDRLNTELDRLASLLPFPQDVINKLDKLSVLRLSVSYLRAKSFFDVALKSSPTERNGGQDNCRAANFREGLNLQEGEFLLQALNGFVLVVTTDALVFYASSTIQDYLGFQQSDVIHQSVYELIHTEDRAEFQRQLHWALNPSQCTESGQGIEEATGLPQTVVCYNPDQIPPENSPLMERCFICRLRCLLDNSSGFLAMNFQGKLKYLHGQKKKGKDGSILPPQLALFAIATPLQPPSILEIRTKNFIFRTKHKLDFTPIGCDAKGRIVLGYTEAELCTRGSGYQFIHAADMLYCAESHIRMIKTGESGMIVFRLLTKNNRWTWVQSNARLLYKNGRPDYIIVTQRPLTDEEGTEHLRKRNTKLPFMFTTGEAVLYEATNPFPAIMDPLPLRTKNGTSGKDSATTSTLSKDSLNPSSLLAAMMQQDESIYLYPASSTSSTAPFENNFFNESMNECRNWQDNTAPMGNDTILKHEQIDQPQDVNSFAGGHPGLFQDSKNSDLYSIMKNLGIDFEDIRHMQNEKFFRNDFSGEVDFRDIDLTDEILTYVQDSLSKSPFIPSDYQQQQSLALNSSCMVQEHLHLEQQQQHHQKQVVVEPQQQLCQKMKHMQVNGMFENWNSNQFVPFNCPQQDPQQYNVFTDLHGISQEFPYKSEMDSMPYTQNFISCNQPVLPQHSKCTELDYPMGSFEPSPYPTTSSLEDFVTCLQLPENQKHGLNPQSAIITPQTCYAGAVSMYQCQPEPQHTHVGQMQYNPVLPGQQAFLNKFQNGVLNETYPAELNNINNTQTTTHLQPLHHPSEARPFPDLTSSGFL

[2] = target: T2, Methionyl-tRNA synthetase, putative (Trypanosoma brucei brucei, UniProt Q38C91); type: functional, Trypanosoma brucei brucei strain 927/4 GUTat10.1
T2 sequence (Q38C91 whole entry): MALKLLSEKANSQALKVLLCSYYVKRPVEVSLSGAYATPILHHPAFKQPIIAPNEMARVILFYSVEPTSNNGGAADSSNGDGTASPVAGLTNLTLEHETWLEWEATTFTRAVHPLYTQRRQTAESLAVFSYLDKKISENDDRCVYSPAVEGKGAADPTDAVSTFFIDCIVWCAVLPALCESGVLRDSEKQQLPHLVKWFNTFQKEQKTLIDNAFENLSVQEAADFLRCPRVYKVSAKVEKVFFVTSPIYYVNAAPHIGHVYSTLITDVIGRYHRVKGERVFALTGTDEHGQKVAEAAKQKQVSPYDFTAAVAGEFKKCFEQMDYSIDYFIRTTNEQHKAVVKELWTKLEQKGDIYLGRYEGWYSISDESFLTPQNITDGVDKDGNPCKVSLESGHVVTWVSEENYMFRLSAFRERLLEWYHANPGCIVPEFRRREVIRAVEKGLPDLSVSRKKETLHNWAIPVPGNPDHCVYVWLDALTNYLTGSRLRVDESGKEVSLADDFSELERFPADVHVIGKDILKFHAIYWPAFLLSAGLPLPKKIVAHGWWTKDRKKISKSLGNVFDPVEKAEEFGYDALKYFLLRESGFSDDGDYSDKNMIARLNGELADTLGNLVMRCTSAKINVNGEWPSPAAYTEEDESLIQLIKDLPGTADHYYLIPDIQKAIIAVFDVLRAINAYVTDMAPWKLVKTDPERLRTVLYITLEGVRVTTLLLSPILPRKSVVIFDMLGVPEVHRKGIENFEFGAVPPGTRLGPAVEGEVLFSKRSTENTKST

[3] = Counterscreen for inhibitors of Trypanosoma brucei methionyl tRNA synthetase (MetRS): Luminescence-based cell-based high throughput dose response assay to identify compounds that are cytotoxic to Jurkat human T lymphocyte cells.; type: functional
[4] = target: T2, Methionyl-tRNA synthetase, putative; type: functional, Trypanosoma brucei brucei strain 927/4 GUTat10.1; remark: listed apart in the source
[5] = target: T3, Apoptotic protease-activating factor 1 (Homo sapiens, UniProt O14727); type: functional;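 on EC50 Mean: caspase-3 cleavage of fluorogenic Rh110 DEVD substrate downstream of apoptosome activation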
T3 sequence (O14727 whole entry): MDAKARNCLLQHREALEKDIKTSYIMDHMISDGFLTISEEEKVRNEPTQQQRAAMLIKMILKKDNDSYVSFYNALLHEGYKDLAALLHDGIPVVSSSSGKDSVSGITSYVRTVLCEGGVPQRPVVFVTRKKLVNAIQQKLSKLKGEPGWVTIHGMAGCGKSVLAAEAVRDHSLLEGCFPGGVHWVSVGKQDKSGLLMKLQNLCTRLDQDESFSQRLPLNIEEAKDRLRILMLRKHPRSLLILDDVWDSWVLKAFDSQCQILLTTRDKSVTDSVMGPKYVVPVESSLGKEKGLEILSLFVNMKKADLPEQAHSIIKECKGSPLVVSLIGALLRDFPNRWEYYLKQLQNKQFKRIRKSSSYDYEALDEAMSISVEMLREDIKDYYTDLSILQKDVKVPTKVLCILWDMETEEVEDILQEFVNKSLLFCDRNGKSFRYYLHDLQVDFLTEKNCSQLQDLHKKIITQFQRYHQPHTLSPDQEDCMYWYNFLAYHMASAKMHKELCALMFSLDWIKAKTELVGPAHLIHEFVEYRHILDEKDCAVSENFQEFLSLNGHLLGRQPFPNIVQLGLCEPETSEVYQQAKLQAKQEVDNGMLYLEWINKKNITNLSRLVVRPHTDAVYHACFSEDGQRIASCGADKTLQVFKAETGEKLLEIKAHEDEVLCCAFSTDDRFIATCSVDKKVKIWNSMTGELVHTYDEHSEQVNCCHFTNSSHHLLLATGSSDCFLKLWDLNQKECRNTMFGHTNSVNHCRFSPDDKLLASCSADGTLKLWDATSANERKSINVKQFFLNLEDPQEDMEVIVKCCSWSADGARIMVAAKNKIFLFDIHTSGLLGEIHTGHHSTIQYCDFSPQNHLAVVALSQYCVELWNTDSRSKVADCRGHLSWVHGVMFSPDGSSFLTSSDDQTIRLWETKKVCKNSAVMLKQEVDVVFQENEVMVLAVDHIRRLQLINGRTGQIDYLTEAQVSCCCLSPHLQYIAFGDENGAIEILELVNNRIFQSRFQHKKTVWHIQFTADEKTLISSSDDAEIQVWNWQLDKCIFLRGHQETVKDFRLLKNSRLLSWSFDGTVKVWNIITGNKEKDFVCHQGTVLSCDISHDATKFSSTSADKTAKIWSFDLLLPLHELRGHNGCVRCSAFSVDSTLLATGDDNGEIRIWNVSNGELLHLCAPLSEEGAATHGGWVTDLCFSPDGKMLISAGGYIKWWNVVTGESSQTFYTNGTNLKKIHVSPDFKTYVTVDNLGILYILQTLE

[6] = target: T4, Oxysterols receptor LXR-beta (Homo sapiens, UniProt P55055); type: functional, cell-based;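 further: Cell-based luminescence dose-response assay of agonist activity at LXR, run as a confirmatory counterscreen to a daf-12 agonist screen; HEK293 cells with Gal4-LXR fusion and GAL4-driven luciferase reporter; agonist potency from rising luciferase signal of a Gal4-LXR reporter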
T4 sequence (P55055 whole entry): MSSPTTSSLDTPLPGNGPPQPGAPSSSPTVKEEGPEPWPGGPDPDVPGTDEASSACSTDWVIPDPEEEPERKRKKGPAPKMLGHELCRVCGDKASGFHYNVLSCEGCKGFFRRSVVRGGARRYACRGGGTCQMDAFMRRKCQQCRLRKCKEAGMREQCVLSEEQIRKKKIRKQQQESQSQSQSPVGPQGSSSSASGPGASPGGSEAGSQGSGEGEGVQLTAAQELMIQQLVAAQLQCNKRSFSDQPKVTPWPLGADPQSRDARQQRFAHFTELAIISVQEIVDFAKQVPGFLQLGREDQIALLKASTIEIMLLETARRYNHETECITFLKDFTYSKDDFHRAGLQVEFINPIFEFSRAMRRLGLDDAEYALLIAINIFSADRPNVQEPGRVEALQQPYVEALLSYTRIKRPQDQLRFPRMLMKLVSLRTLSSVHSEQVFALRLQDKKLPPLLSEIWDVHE

[7] = target: T5, Corticotropin-releasing factor receptor 2/Corticotropin-releasing factor-binding protein (Homo sapiens, UniProt P24387+Q13324); assay: Dose Response confirmation of uHTS hits for small molecule antagonists of the CRF-binding protein and CRF-R2 receptor complex.; type: functional; conditions: read-out: IC50_Mean
T5 sequence (Q13324 whole entry): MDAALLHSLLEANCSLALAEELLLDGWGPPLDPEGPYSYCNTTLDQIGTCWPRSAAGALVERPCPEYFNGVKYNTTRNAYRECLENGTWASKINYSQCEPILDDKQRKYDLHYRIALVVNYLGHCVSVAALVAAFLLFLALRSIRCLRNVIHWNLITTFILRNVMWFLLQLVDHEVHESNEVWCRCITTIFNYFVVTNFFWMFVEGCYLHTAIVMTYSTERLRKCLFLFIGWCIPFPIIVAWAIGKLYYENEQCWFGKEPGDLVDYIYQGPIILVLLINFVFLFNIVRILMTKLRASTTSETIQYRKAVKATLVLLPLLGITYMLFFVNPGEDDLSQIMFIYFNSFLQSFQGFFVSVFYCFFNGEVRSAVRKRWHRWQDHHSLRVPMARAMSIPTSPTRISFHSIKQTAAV
T5 sequence (P24387 whole entry): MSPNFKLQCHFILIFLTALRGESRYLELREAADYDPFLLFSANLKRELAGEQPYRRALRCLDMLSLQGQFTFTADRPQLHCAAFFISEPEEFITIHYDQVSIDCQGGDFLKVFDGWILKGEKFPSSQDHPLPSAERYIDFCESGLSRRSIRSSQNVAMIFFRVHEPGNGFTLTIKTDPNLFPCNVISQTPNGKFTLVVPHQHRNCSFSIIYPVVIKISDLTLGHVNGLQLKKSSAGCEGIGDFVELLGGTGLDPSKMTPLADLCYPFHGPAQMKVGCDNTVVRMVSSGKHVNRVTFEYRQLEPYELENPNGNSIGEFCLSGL

[8] = target: T5, Corticotropin-releasing factor receptor 2/Corticotropin-releasing factor-binding protein; assay: activators of CRF receptor 2 with binding protein – uHTS hits, confirmation (AID 602473); type: functional; conditions: read-out: EC50_Mean
[9] = CRF-BP/CRF-R2 complex antagonists, dose response, cell-based, uHTS hits, 384-well (AID 651639); type: functional, Homo sapiens; conditions: read-out: IC50_Mean
[10] = target: Ras and Rab interactor 1/Tyrosine-protein kinase ABL1 (Homo sapiens, UniProt P00519+Q13671); type: functional;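 further: biochemical TR-FRET dose-response test measuring inhibition of binding between Rin1 and Abl proteins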
[11] = target: Protein disulfide-isomerase (Homo sapiens, UniProt P07237); assay: PDI inhibitors, insulin aggregation turbidity, dose response, biochemical, absorbance, cherry-picked samples (AID 602350); type: functional
[12] = target: Dual specificity tyrosine-phosphorylation-regulated kinase 1A (Rattus norvegicus, UniProt Q63470); type: biochemical, Homo sapiens
[13] = target: Tyrosine-protein phosphatase non-receptor type 11 (Homo sapiens, UniProt Q06124); assay: SHP2 phosphatase inhibition, dose response, selectivity assay for STEP inhibitor project, biochemical (AID 602367); type: functional; conditions: read-out: IC50_Mean
[14] = target: Tyrosine-protein phosphatase non-receptor type 5 (Homo sapiens, UniProt P54829); assay: STEP phosphatase inhibitors, confirmation, biochemical, fluorescence intensity, uHTS hits (AID 602372); type: functional; conditions: read-out: IC50_Mean
[15] = target: Dual specificity protein phosphatase 3 (Homo sapiens, UniProt P51452); assay: VHR phosphatase inhibition, dose response, selectivity assay for STEP inhibitor project, biochemical (AID 602374); type: functional; conditions: read-out: IC50_Mean
[16] = target: T6, Low molecular weight phosphotyrosine protein phosphatase (Homo sapiens, UniProt P24666); type: functional; conditions: read-out: IC50_Mean;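 further: Dose-response confirmation assay measuring inhibition of LMPTP enzyme activity by fluorescence intensity read-out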
T6 sequence (P24666 whole entry): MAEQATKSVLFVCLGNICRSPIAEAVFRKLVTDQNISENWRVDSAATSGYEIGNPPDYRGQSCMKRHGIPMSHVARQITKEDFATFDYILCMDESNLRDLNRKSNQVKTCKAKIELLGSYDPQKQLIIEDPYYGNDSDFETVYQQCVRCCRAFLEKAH

[17] = target: T3, Apoptotic protease-activating factor 1; assay: SAR analysis of small molecule Activators of Apaf-1 in a Fluorescent assay.; type: functional; conditions: read-out: EC50_Mean

Protein disulfide-isomerase, sequence (P07237 whole entry): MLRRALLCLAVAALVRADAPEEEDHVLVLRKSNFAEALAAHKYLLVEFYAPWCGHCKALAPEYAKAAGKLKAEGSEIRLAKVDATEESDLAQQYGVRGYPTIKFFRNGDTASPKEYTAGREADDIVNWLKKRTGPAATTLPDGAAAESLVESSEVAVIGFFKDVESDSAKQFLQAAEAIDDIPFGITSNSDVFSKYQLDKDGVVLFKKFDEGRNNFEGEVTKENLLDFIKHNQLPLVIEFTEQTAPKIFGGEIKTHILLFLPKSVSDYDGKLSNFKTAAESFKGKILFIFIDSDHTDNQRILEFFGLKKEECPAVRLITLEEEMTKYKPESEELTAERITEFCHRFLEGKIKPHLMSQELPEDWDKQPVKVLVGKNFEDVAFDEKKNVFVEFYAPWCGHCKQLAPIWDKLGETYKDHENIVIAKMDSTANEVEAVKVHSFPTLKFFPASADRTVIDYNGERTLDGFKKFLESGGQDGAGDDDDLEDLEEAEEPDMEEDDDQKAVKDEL
Ras and Rab interactor 1/Tyrosine-protein kinase ABL1, sequence (P00519 whole entry): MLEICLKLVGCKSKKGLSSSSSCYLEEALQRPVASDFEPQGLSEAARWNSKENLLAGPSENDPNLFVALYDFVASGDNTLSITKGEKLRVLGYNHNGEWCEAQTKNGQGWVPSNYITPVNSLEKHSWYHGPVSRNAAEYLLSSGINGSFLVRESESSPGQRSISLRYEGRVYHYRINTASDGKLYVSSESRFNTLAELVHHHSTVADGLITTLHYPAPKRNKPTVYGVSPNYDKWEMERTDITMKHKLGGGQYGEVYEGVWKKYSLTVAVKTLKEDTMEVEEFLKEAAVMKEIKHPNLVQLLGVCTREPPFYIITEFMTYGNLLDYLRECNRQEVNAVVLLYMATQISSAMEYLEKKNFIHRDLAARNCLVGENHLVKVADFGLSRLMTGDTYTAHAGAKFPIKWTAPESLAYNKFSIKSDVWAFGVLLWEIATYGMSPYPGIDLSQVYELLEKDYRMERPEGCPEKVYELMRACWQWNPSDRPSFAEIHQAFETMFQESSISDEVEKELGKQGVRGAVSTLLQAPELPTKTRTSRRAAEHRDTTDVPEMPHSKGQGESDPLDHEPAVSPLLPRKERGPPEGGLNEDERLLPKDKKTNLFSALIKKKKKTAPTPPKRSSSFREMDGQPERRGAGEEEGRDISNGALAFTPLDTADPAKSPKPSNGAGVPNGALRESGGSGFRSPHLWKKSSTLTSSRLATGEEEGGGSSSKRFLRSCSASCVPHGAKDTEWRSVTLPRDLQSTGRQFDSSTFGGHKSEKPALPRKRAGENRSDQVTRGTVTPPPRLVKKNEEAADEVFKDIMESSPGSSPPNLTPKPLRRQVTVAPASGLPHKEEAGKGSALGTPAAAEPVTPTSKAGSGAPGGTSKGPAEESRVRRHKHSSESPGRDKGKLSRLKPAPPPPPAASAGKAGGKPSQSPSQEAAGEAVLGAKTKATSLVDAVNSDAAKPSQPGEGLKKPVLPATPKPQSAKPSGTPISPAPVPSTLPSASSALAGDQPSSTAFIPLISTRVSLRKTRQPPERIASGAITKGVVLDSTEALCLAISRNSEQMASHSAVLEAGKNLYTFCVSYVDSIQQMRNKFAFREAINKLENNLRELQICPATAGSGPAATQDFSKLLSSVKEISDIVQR
Ras and Rab interactor 1/Tyrosine-protein kinase ABL1, sequence (Q13671 whole entry): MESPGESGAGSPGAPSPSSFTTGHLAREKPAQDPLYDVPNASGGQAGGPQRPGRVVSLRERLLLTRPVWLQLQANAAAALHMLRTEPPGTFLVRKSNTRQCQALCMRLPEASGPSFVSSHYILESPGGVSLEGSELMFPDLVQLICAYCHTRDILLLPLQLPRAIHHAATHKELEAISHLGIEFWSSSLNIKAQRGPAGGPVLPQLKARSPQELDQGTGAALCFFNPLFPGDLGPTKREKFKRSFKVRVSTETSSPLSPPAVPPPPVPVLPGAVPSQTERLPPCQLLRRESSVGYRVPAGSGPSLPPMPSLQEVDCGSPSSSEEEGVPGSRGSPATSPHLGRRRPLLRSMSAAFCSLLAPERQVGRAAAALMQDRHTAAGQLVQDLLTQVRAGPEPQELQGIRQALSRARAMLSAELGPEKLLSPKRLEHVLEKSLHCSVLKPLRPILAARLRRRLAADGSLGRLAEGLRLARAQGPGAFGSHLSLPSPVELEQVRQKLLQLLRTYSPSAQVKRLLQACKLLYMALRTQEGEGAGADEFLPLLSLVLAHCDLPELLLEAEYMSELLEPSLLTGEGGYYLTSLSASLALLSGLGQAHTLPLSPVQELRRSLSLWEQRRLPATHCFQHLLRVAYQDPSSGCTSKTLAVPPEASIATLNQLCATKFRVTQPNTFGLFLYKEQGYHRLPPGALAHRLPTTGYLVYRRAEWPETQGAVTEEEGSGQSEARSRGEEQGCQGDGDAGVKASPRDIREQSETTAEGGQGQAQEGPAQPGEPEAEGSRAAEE
Tyrosine-protein phosphatase non-receptor type 11, sequence (Q06124 whole entry): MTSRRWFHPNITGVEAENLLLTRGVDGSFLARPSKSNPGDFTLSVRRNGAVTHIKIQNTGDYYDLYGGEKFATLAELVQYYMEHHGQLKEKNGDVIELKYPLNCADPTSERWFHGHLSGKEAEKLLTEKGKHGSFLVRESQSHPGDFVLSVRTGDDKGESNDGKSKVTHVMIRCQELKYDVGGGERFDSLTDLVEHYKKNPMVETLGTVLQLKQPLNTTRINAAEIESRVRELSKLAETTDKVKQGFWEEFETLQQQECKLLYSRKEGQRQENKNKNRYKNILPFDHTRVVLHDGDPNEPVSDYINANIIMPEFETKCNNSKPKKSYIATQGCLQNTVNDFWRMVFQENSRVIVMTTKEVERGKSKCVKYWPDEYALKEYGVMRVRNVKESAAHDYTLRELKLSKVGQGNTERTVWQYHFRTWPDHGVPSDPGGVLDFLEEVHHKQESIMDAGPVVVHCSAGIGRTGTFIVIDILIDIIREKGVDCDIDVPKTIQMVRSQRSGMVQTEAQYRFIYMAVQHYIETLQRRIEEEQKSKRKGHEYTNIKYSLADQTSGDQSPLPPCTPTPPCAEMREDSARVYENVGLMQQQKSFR
Tyrosine-protein phosphatase non-receptor type 5, sequence (P54829 whole entry): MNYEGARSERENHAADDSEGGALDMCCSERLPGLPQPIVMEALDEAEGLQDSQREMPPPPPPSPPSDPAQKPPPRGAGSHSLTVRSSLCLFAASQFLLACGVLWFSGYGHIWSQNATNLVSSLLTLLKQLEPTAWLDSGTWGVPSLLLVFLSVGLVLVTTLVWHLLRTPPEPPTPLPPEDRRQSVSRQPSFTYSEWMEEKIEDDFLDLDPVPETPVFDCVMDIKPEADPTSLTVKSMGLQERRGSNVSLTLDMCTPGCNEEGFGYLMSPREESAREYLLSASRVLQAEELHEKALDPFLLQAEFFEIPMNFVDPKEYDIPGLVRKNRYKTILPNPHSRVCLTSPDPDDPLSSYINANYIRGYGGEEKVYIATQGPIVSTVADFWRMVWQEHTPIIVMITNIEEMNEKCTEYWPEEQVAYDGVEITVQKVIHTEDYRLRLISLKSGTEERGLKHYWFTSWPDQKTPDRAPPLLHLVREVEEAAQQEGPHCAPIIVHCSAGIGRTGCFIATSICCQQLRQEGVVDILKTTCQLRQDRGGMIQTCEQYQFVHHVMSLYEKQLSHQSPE
Cytochrome P450 3A4, sequence (P08684 whole entry): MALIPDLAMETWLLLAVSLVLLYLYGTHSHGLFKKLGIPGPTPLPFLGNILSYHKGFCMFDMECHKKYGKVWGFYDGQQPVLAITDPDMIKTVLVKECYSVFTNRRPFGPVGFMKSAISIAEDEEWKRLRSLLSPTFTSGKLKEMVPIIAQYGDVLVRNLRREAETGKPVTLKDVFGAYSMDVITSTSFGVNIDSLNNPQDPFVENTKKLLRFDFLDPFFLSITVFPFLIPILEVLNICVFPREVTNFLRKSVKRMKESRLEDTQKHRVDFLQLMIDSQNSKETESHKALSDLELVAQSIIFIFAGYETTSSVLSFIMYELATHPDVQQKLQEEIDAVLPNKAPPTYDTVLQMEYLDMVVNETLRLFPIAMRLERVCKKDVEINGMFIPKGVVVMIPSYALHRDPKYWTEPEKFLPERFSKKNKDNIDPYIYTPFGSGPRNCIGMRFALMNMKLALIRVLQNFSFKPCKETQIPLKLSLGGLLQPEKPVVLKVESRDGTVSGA
Dual specificity protein phosphatase 3, sequence (P51452 whole entry): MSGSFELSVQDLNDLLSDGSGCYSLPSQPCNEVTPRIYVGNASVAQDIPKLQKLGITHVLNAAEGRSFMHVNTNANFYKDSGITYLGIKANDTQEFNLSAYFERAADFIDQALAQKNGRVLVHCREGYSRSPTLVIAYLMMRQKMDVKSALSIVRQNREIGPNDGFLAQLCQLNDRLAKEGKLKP

Nc1ccc(Cl)c(Cl)c1
AC50 (Cytochrome P450 3A4): 25.1 µM (inconclusive) | AC50 [1]: 56.2 µM (inconclusive)

Cc1ccc(CNC(=O)CSc2n[nH]c3c4ccccc4nc-3n2)cc1
IC50 [2]: 119 µM (inactive) | IC50 [3]: 83.3 µM (inactive) | IC50 [4]: 3.38 µM (active)

O=[N+]([O-])c1ccccc1-c1ccc(C(=S)N2CCCC2)o1
IC50 [5]: 49.8 µM (active) | EC50 [6]: > 67.5 µM (inactive) | EC50 (cells): > 67.5 µM (inactive)

CC1CC(C)CN(C(=O)CSc2nc(Cc3cccs3)nc3ccccc23)C1 (configuration not stated)
IC50 [7]: 6.34 µM (active) | EC50 [8]: > 53 µM (inactive) | IC50 [9]: 5.99 µM (active)

CC(C)OC(=O)Cc1ccccc1
AC50 [1]: 35.5 µM (inconclusive)

CCOC(=O)Oc1ccc2c(=O)c(Oc3cccc(C)c3)coc2c1
IC50 [7]: 0.61 µM (active) | EC50 [8]: > 53 µM (inactive) | IC50 [9]: > 20 µM (inactive)

COc1ccccc1CNC(=O)CSc1nnc2ccc(-c3cccnc3)nn12
IC50 [10]: > 73.5 µM (inactive)

C[C@@H]1O[C@@H](O[C@H]2[C@H](O)[C@@H](O)[C@H](Oc3c(-c4ccc(O)cc4)oc4cc(O)cc(O)c4c3=O)O[C@@H]2CO)[C@H](O)[C@H](O)[C@H]1O
AC50 [11]: 6.92 µM (active)

C[C@@H]1O[C@@H](OC[C@H]2O[C@@H](Oc3c(-c4ccc(O)c(O)c4)oc4cc(O)cc(O)c4c3=O)[C@H](O)[C@@H](O)[C@@H]2O)[C@H](O)[C@H](O)[C@H]1O
AC50 [12]: 4.08 µM (active) | IC50 [10]: > 73.5 µM (inactive) | AC50 [11]: 7.62 µM (active)

Cc1ccc(S(=O)(=O)N2CCCCC2)cc1NC(=O)c1ccc(=O)[nH]c1
IC50 [13]: 4.88 µM (active) | IC50 [14]: 29.6 µM (inactive) | IC50 [15]: 3.08 µM (active) | IC50 [16]: 37.1 µM (inactive)

CN1CCC(Oc2ccccc2N2CC(C(=O)O)CC2=O)CC1 (configuration not stated)
EC50 [17]: > 100 µM (inactive)

O=C(Nc1ccc(F)cc1F)C1CC(c2ccc(F)cc2)=NO1 (configuration not stated)
EC50 [17]: > 100 µM (inactive)

O=c1c(O[C@@H]2O[C@H](CO)[C@@H](O)[C@H](O)[C@H]2O)c(-c2ccc(O)cc2)oc2cc(O)cc(O)c12 [ASTRAGALIN]
AC50 [11]: 19 µM (active)
